Measured values published in patent US20250221922A1, “ORAL CARE COMPOSITIONS CONTAINING RHAMNOLIPIDS” (Stepan Company, priority 2022, published 2025).

Test: Flavor Solubilization (mint flavor oils)
Format: physicochemical
Details: premix at the solubilization ratio
Method: The ability of the rhamnolipid mixture to solubilize an oil-based flavorant, such as a mint oil flavorant, was tested. The rhamnolipid composition tested was Sample 3 used above for Porphyromonas gingivalis.
Functionality was determined through a series of dilutions using the rhamnolipid mixture as a potential solubilizer component for flavor oils in the absence of synthetic or other solubilizers. The rhamnolipid composition was compared with polysorbate 20, which is a synthetic solubilizer and the industry standard for oil solubilization for flavors. Common mint flavors, such as Mint #244456 and Mint #244455 from Belle Aire Creations, were used as the flavor oils.
The rhamnolipid composition was added to each of the flavor oils in increasing amounts in order to determine the solubilizer component to flavor oil ratio at which a clear premix was obtained. Once a clear premix was obtained, that premix was then added to deionized water to ensure that the final solution was crystal clear.

Substance: polysorbate 20
- appearance of final solution of the premix in deionized water: crystal clear
